# Measured values: publication PMC10298626 (International Journal of Molecular Sciences, 2023)
# Marks after values point to notes of the source that are not given here.
# What was measured:
# Type in all cases: cell-based, Mouse
# [1] = tested on: IL-6 mRNA; assay: IL-6 mRNA expression (qRT-PCR) in LPS-stimulated RAW264.7 cells; details: 20, 40, and 80 μM; 2 h pretreatment, LPS 500 ng/mL 6 h
# Description: (§1) RAW264.7 cells were seeded into a 6-well plate (2 × 10^6 cells/well) and cultured for 24 h. The cells were treated with coumarin derivative 2 at 20, 40, and 80 μM and cultured for 2 h and with LPS (500 ng/mL) for 6 h.
# (§2) The cells were washed with phosphate-buffered saline (PBS) and lysed with the RNeasy Mini kit (Qiagen, Hilden, Germany) for RNA isolation. RNA was converted to cDNA using the AccuPower reverse transcriptase Premix Kit (Bioneer, Daejeon, Republic of Korea). A Power SYBR Green PCR Master Mix (Applied Biosystems, Waltham, MN, USA) was used to perform polymerase chain reaction amplification. Amplification conditions were selected within the Quant 3 PCR system (Applied Biosystems). The data were normalized to the amount of glyceraldehyde 3-phosphate dehydrogenase.
# Figure 3 Effects of coumarin derivative 2 on IL-6 and TNF-α production and mRNA expression in LPS-stimulated RAW264.7 cells. (a) Effect of coumarin derivative 2 on TNF-α and IL-6 production in RAW264.7 cells. The RAW264.7 cells (1 × 10^5/well, 96-well plates) were pretreated with coumarin derivative 2 (20, 40, and 80 μM) for 2 h and incubated with LPS (500 ng/mL) for 20 h. An ELISA kit was used to analyze cell supernatants for TNF-α and IL-6. […] IL-6 and TNF-α mRNA expression levels were measured via a real-time quantitative reverse transcription polymerase chain reaction.
# [2] = tested on: ERK; assay: LPS-induced phosphorylation of ERK (immunoblotting) in RAW264.7 cells; details: 20, 40, and 80 μM pretreatment 2 h; LPS 500 ng/mL 30 min
# Description: (§3) RAW264.7 cells were seeded into 6-well plates (2 × 10^6 cells/well) and incubated for 24 h. The cells were incubated with 20, 40, and 80 μM of coumarin derivative 2 for 2 h, and then LPS (500 ng/mL) was added for 30 min (for phosphorylation of ERK, JNK, p38, and p65) and 24 h (for protein expression of iNOS).
# (§4) The cells were washed with PBS and lysed with radioimmunoprecipitation assay buffer containing 1 mM dithiothreitol (Wako, Tokyo, Japan), phosphatase inhibitor cocktail, 1 mM phenylmethylsulfonylfluoride, 1 mM sodium orthovanadate (Sigma), and 10 mM β-glycerophosphate (Sigma). The extracted proteins were centrifuged at 13,000× g rpm, separated via sodium dodecyl sulfate polyacrylamide gel electrophoresis, and transferred to polyvinylidene fluoride membranes. Nonspecific proteins were blocked by adding 5% skim milk. After blocking, primary antibodies were incubated overnight at 4 °C. After washing with the PBS-T buffer, the secondary antibodies were treated at room temperature for 2 h. For detection, the antibodies were developed with Super Signal® West Femto Substrate (ThermoFisher, Waltham, MN, USA) and analyzed on a Fusion Solo Chemiluminescence System (Vilber Lourmat, Paris, France) ECL detection system.
# (§5) Figure 5 Inhibitory effects of coumarin derivative 2 on LPS-induced phosphorylation of MAPKs and NF-κB p65 in RAW264.7 cells. […]
# [3] = tested on: LPS-stimulated RAW264.7 cells; assay: NO production (Griess reagent) in LPS-stimulated RAW264.7 cells
# Description: A high concentration of NO promotes the synthesis of inflammatory mediators, leading to an inflammatory response, and has been reported to be a cause of various immune diseases. Therefore, this study was conducted to investigate the effect of coumarin derivatives on the production of NO induced by LPS stimulation in RAW264.7 cells. The cells were treated with coumarin derivatives at concentrations of 20, 40, and 80 μM for 2 h. Then, the cells were treated with LPS. After 20 h, the culture supernatant was recovered, and the amount of NO was measured. […] The anti-inflammatory activity of these derivatives depended on the position of the substituted group rather than the electron density of the substituted group.
# The Griess reagent was used to measure NO production. RAW264.7 cells were seeded into a 96-well plate and cultured for 24 h. The cells were treated with 20, 40, and 80 μM of coumarin derivatives, cultured for 2 h, and then cultured with LPS (500 ng/mL) for 20 h. The same amount of cell supernatant and Griess reagent were used for the reaction, and absorbance was measured at 540 nm.
# [4] = tested on: NF-κB p65; assay: LPS-induced phosphorylation of NF-κB p65 (immunoblotting) in RAW264.7 cells; details: 20, 40, and 80 μM pretreatment 2 h; LPS 500 ng/mL 30 min
# Description: as §3, §4, §5
# [5] = tested on: iNOS mRNA; assay: iNOS mRNA expression (qRT-PCR) in LPS-stimulated RAW264.7 cells; details: 20, 40, and 80 μM; 2 h pretreatment, LPS 500 ng/mL 6 h
# Description: as §1, §2
# Figure 4 Effect of coumarin derivative 2 on iNOS protein expression in LPS-stimulated RAW264.7 cells. (a) RAW264.7 cells (2.0 × 10^6 cells/6 cm dish) were pretreated with coumarin derivative 2 (20, 40, and 80 μM) for 2 h and incubated with LPS (500 ng/mL) for 20 h. Whole-cell lysates were then immunoblotted with the iNOS specific antibody. […] (c) RAW264.7 cells (2.0 × 10^6 cells/6 cm dish) were pretreated with coumarin derivative 2 (20, 40, and 80 μM) for 2 h and incubated with LPS (500 ng/mL) for 6 h. iNOS mRNA expression levels were measured via a real-time quantitative reverse transcription polymerase chain reaction. […]
smiles,measurement,setting,value
N#CC1=C(N)Oc2c(c(=O)oc3ccccc23)C1c1cccc(F)c1 (stereo not drawn) [Coumarin derivative 2],IL-6 mRNA expression,[1],significantly suppressed
same,Phosphorylation of ERK,[2],inhibited
same,"NO production, Average","[3]; 20 μM for 2 h, then LPS (500 ng/mL) 20 h, LPS alone 25.9, control 3.1",22.53 µM
same,"NO production, Average (μM)","[3]; 40 μM for 2 h, then LPS (500 ng/mL) 20 h, LPS alone 25.9, control 3.1",15.24 *** μM
same,"NO production, Average (μM)","[3]; 80 μM for 2 h, then LPS (500 ng/mL) 20 h, LPS alone 25.9, control 3.1",10.17 *** μM
same,"Anti-inflammatory effect (inhibition of NO secretion), in words","[3]; 20, 40, and 80 μM, compared with LPS-only treatment",inhibited NO secretion in a concentration-dependent manner
same,IC50,"[3]; Mus musculus, RAW264.7, read-out: IC50 of NO production inhibition",33.4 µM
same,p65 phosphorylation,[4],inhibited
same,iNOS mRNA expression,[5],significantly suppressed
